This assay relates to monocyte-derived M1 macrophages. As to the kind of experiment: M1 differentiation assay (macrophage TNFα, IL6, IL10 ELISA, FACS). It is filed as cell-based, human. The settings on record: for activation at 10 µM / inhibition at 10 µM / activation at 50 µM / inhibition at 50 µM: Homo sapiens, Macrophage; for activation at 10 µM / activation at 50 µM: read-out: % Increase in IL-10 Secretion. The method in brief: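 CD14+ human blood monocytes (100,000) differentiated 6 days with 10 ng/ml GM-CSF plus compound at 10 or 50 μM, refreshed days 2 and 4. Matured 24 h with GM-CSF, IFNγ, LPS plus compound. Supernatant TNFα, IL6, IL10 by ELISA; FACS M1 phenotype CD86+CD68+CD163−.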
For orientation: ELISA stands for enzyme-linked immunosorbent assay.

The mark [1] stands for this setting: 10 uM, read-out: % decrease in Macrophage IL-6 Secretion.
Where [2] appears, read: 10 uM, read-out: % decrease in Macrophage TNFα Secretion.
[3] abbreviates: 50 uM, read-out: % decrease in Macrophage IL-6 Secretion.

Structures are written as SMILES. Like-named read-outs stand apart in the source and are kept apart here.

As for `COC(=O)C(C)C(=O)SCCNC(=O)CCNC(=O)[C@H](O)C(C)(C)CO` (stereo partly shown) [Compound 405], the “% decrease in IL-10 Secretion” value (50 uM) is reported as no less than 30%. Besides, under “50 uM”, the “% decrease in Live Macrophage Cells” value is listed as no less than 20%. Besides, the activation at 10 µM (10 uM) was no less than 30%. Further, the inhibition at 10 µM was no less than 30% under setting [1] and no less than 30% under setting [2].
Take `CCC(C)C(=O)CC(=O)SCCNC(=O)CCNC(=O)[C@H](O)C(C)(C)CO` (stereo partly drawn) [Compound 1240, S-(2-(3-((R)-2,4-dihydroxy-3,3-dimethylbutanamido)propanamido)ethyl) 4-methyl-3-oxohexanethioate]: where the note is “10 uM”, the “% Increase in Live Macrophage Cells” value is given as no less than 20%. Moreover, the inhibition at 10 µM under setting [1] is no less than 30% and the inhibition at 10 µM under setting [2] was no less than 30%. Further, the activation at 50 µM (50 uM) was no less than 30%.
Consider `COC(=O)CCC(=O)SCCNC(=O)CCNC(=O)[C@H](O)C(C)(C)CO` [Compound 4, Methyl (R)-4-((2-(3-(2,4-dihydroxy-3,3-dimethylbutanamido)propanamido)ethyl)thio)-4-oxobutanoate], for which the inhibition at 10 µM under setting [2] is no less than 30%.
For the compound `CC(C)(CO)[C@@H](OC(=O)CCC(=O)O)C(=O)NCCC(=O)NCCS` [Compound 1311, (R)-4-((4-hydroxy-1-((3-((2-mercaptoethyl)amino)-3-oxopropyl)amino)-3,3-dimethyl-1-oxobutan-2-yl)oxy)-4-oxobutanoic acid], where the note is “50 uM”, the “% decrease in IL-10 Secretion” value is recorded as no less than 30% and the activation at 50 µM was no less than 30%. In addition, the inhibition at 10 µM under setting [1] was no less than 30%. The inhibition at 10 µM under setting [2] was no less than 30%.
`C[C@H](CC(=O)SCCNC(=O)CCNC(=O)[C@H](O)C(C)(C)CO)OC(=O)CCC(=O)O` [Compound 1243, 4-{[(2R)-4-[(2-{3-[(2R)-2,4-dihydroxy-3,3-dimethylbutanamido]propanamido}ethyl)sulfanyl]-4-oxobutan-2-yl]oxy}-4-oxobutanoic acid]: under setting [2], the inhibition at 10 µM is no less than 30%.
As for `C/C=C/C(=O)SCCNC(=O)CCNC(=O)[C@H](O)C(C)(C)COP(=O)(O)O` [Compound 82, (R)—S-(2-(3-(2-hydroxy-3,3-dimethyl-4-(phosphonooxy)butanamido)propanamido)ethyl) (E)-but-2-enethioate], the inhibition at 10 µM under setting [2] was no less than 30%. The inhibition at 50 µM under setting [3] was no less than 30%.
As to `CC1(CC(=O)SCCNC(=O)CCNC(=O)[C@H](O)C(C)(C)CO)OCCO1` [Compound 1252, (R)—S-(2-(3-(2,4-dihydroxy-3,3-dimethylbutanamido)propanamido)ethyl)-2-(2-methyl-1,3-dioxolan-2-yl)ethanethioate], where the note is “50 uM”, the “% decrease in Live Macrophage Cells” value was no less than 20% and the activation at 50 µM is no less than 30%. Besides, under setting [1], the inhibition at 10 µM is no less than 30%. Moreover, the inhibition at 10 µM under setting [2] was no less than 30%.
As for `CC(C)C(=O)CC(=O)SCCNC(=O)CCNC(=O)[C@H](O)C(C)(C)CO` [Compound 1239, (R)—S-(2-(3-(2,4-dihydroxy-3,3-dimethylbutanamido)propanamido)ethyl) 4-methyl-3-oxopentanethioate], where the note is “10 uM”, the “% Increase in Live Macrophage Cells” value was no less than 20% and the activation at 10 µM is no less than 30%. Besides, the inhibition at 10 µM under setting [1] was no less than 30%. Further, under setting [2], the inhibition at 10 µM is no less than 30%.
Regarding `CC(C)=CC(=O)SCCNC(=O)CCNC(=O)[C@H](O)C(C)(C)CO` [Compound 37, S-2-{3-[(R)-2,4-dihydroxy-3,3-dimethylbutyrylamino]propionylamino}ethyl 3-methyl-2-butenethioate], the “% decrease in IL-10 Secretion” value (10 uM) is no less than 30%. Moreover, the inhibition at 10 µM under setting [2] was no less than 30%. Further, the inhibition at 50 µM under setting [3] was no less than 30%.
As for `CC(C)(COC(=O)CCC(=O)O)[C@@H](O)C(=O)NCCC(=O)NCCS` [Compound 1310, (R)-4-(3-hydroxy-4-((3-((2-mercaptoethyl)amino)-3-oxopropyl)amino)-2,2-dimethyl-4-oxobutoxy)-4-oxobutanoic acid], the inhibition at 10 µM was no less than 30% under setting [1] and no less than 30% under setting [2]. Further, the activation at 50 µM (50 uM) was no less than 30%.

The values above are taken from US20230107216A1, “PANTETHEINE DERIVATIVES AND USES THEREOF” (Comet Therapeutics, Inc., priority 2018, published 2023).
